From patent EP0539588A1, “AMINE DERIVATIVE” (NIPPON SODA CO., LTD., priority 1990, dated 1992)
Read-outs that look alike come from different tables or passages of the source.

Experiments:
[1] = system: Cotton aphids; experiment: Efficacy against cotton aphids (spray on cucumber leaves); assay type: in vivo; conditions: for mortality at 125 ppm: 168 h, read-out: Control E fficacy (7 days later) 125ppm
Procedure: Test Example 1: Efficacy against cotton aphids
Cotton aphids were inoculated at the rate of 30-50 aphids per plot on 10 days old cucumber leaves grown in 10 cm pot by using small brush respectively. The aphids injured during inoculation were eliminated after one day, then the compound solution adjusted to 125 ppm concentration by dilution emulsifiable concentrate according to the recipe of the Example 6 with water was sprayed thereto. The aphids were allowed to stand in incubator maintained at 25 °C and 65% R.H., then counted the number of living aphids after 7 days whereby the control ratio was determined in comparison with the untreated plot.

[2] = system: resistant-strain of planthoppers for organophosphate and carbamate insecticides; experiment: Efficacy against planthoppers (rice seedling dip); assay type: in vivo; conditions: Oryza sativa, 120 h, read-out: Mortality (5days later) 125 ppm
From the text: Test Example 2: Efficacy against planthoppers
Young seedlings of rice plant at the stage of 7 days after germination were dipped for 30 seconds in the compound solution of the emulsifiable concentrate according to the recipe of Example 6 adjusted to 125 ppm concentration by diluting with water. After seedlings were dried, they were put into the inside of test tubes and 10 third instar larva of resistant-strain of planthoppers for organophosphate and carbamate insecticides were respectively inoculated in each test tube. The test tubes were shielded with gauze and allowed to stand in the incubator maintained at 25°C and 65% R.H., then the percentage killed were counted after 5 days.

[3] = 125 ppm spray of emulsifiable concentrate (Example 6) on cucumber leaves, living aphids counted after 7 days, compared with the untreated plot, 25 °C, 65% R.H.
[4] = rice seedlings dipped 30 seconds in 125 ppm solution, 10 third instar larva per test tube, percentage killed after 5 days, 25°C, 65% R.H.

**Q.** Cc1nc(N(C)C)nc(OC(=O)N(C)C)c1C [Comparative Compound A, Pyrimicarb, reference compound] was tested. Which “Control E fficacy (7 days later) 125ppm” value [1, 3] did it give?
**A.** The value was 0%.

**Q.** CCOC(=O)CC(SP(=S)(OC)OC)C(=O)OCC (stereo not shown) [Comparative Compound B, Malathion, reference compound] was tested. Which mortality at 125 ppm [2] did it give?
**A.** The mortality at 125 ppm was 0%.

**Q.** O=C1C=C(NCc2ccc(Cl)nc2)CCC1 [Compound No. 1, 1-(2-chloro-5-pyridylmethylamino)-1-cyclohexene-3-on] was tested. Which mortality at 125 ppm [1] did it give?
**A.** Its mortality at 125 ppm is 100%.

**Q.** What about the mortality at 125 ppm [2] of the same compound?
**A.** Its mortality at 125 ppm is 100%.

**Q.** Which mortality at 125 ppm [2, 4] does the source give for Cn1c(NCc2ccc(Cl)nc2)cc(=O)n(C)c1=O [Compound No. 70, 4-(2-chloro-5-pyridylmethylamino)-1,3-dimethyluracil] here?
**A.** The mortality at 125 ppm was 100%.

**Q.** For Cn1c(NCc2ccc(Cl)nc2)c([N+](=O)[O-])c(=O)n(C)c1=O [Compound No. 71, 4-(2-chloro-5-pyridylmethylamino)-1,3-dimethyl-5-nitrouracil], which mortality at 125 ppm [2, 4] is on record?
**A.** The mortality at 125 ppm was 100%.

**Q.** Cc1cc(NCc2ccc(Cl)nc2)cc(=O)o1 [Compound No. 77, 4-(2-chloro-5-pyridylmethylamino)-6-methylpyran-2-on] was tested. Which mortality at 125 ppm [2] did it give?
**A.** Its mortality at 125 ppm is 100%.

**Q.** How did the mortality at 125 ppm [2, 4] turn out when O=C1CCCC(NCc2ccc(Cl)nc2)=C1Cl [compound 23] was run?
**A.** Its mortality at 125 ppm is 100%.

**Q.** Which mortality at 125 ppm [1, 3] does the source give for CC1CCC(NCc2ccc(Cl)nc2)=CC1=O (stereo not shown) [compound 29] here?
**A.** Its mortality at 125 ppm is 100%.

**Q.** And the mortality at 125 ppm [2, 4]?
**A.** Its mortality at 125 ppm is 100%.

**Q.** CC1(C)CCC(NCc2ccc(Cl)nc2)=CC1=O [compound 30] was tested. Which mortality at 125 ppm [2, 4] did it give?
**A.** Its mortality at 125 ppm is 100%.

**Q.** With CSC1CCC(NCc2ccc(Cl)nc2)=CC1=O (stereo not shown) [compound 31] as the compound, how does the mortality at 125 ppm [1, 3] read?
**A.** The mortality at 125 ppm was 100%.

**Q.** What about the mortality at 125 ppm [2, 4] of the same compound?
**A.** Its mortality at 125 ppm is 100%.

**Q.** With CC1CC(=O)C=C(NCc2ccc(Cl)nc2)C1 (stereo not shown) [compound 34] as the compound, how does the mortality at 125 ppm [2, 4] read?
**A.** Its mortality at 125 ppm is 100%.

**Q.** Which mortality at 125 ppm [2, 4] does the source give for CSC1CCC(N(C)Cc2ccc(Cl)nc2)=CC1=O (stereo not shown) [compound 42] here?
**A.** Its mortality at 125 ppm is 100%.

**Q.** For O=C1C=C(NCc2cnc(Cl)s2)CCC1 [compound 59], which mortality at 125 ppm [1, 3] is on record?
**A.** The mortality at 125 ppm was 100%.

**Q.** What about the mortality at 125 ppm [2, 4] of the same compound?
**A.** The mortality at 125 ppm was 100%.

**Q.** With CN(Cc1cnc(Cl)s1)C1=CC(=O)CCC1 [compound 60] as the compound, how does the mortality at 125 ppm [1, 3] read?
**A.** Its mortality at 125 ppm is 100%.

**Q.** What about the mortality at 125 ppm [2, 4] of the same compound?
**A.** Its mortality at 125 ppm is 100%.

**Q.** For Cc1cc(NCc2ccc(Cl)nc2)c([N+](=O)[O-])c(=O)n1C [compound 69], which mortality at 125 ppm [2, 4] is on record?
**A.** The mortality at 125 ppm was 100%.

**Q.** For CN1C(=O)C([N+](=O)[O-])=C(NCc2ccc(Cl)nc2)N(C)S1(=O)=O [compound 73], which mortality at 125 ppm [2, 4] is on record?
**A.** The mortality at 125 ppm was 100%.

**Q.** Which mortality at 125 ppm [1, 3] does the source give for O=C1C=C(NCc2ccc(Cl)nc2)CCO1 [compound 74] here?
**A.** Its mortality at 125 ppm is 100%.

**Q.** And the mortality at 125 ppm [2, 4]?
**A.** The mortality at 125 ppm was 100%.

**Q.** Which results are given for CC1CC(NCc2ccc(Cl)nc2)=CC(=O)O1 (stereo not shown) [compound 75]?
**A.** mortality at 125 ppm [1, 3]: 100%; mortality at 125 ppm [2, 4]: 100%

**Q.** How did the mortality at 125 ppm [2, 4] turn out when O=C1C=C(NCc2ccc(Cl)nc2)CSC1 [compound 80] was run?
**A.** The mortality at 125 ppm was 100%.

**Q.** Which mortality at 125 ppm [1, 3] does the source give for CN(Cc1ccc(Cl)nc1)C1=CC(=O)OCC1 [compound 82] here?
**A.** The mortality at 125 ppm was 100%.

**Q.** And the mortality at 125 ppm [2, 4]?
**A.** The mortality at 125 ppm was 100%.

**Q.** O=C1C=C(NCc2ccc(Cl)nc2)CO1 [compound 83] was tested. Which mortality at 125 ppm [1, 3] did it give?
**A.** The mortality at 125 ppm was 100%.

**Q.** What about the mortality at 125 ppm [2, 4] of the same compound?
**A.** The mortality at 125 ppm was 100%.

**Q.** CN(Cc1ccc(Cl)nc1)C1=CC(=O)OC1 [compound 84] was tested. Which mortality at 125 ppm [1, 3] did it give?
**A.** Its mortality at 125 ppm is 100%.

**Q.** And the mortality at 125 ppm [2, 4]?
**A.** Its mortality at 125 ppm is 100%.

**Q.** Which mortality at 125 ppm [1, 3] does the source give for CCN(Cc1ccc(Cl)nc1)C1=CC(=O)OC1 [compound 85] here?
**A.** The mortality at 125 ppm was 100%.

**Q.** And the mortality at 125 ppm [2, 4]?
**A.** Its mortality at 125 ppm is 100%.

**Q.** Which mortality at 125 ppm [1, 3] does the source give for CCCN(Cc1ccc(Cl)nc1)C1=CC(=O)OC1 [compound 86] here?
**A.** The mortality at 125 ppm was 100%.

**Q.** And the mortality at 125 ppm [2, 4]?
**A.** The mortality at 125 ppm was 100%.

**Q.** For O=C1C=C(N(Cc2ccc(Cl)nc2)C2CC2)CO1 [compound 88], which mortality at 125 ppm [1, 3] is on record?
**A.** The mortality at 125 ppm was 100%.

**Q.** What about the mortality at 125 ppm [2, 4] of the same compound?
**A.** The mortality at 125 ppm was 100%.

**Q.** Which mortality at 125 ppm [1, 3] does the source give for CC(C)CN(Cc1ccc(Cl)nc1)C1=CC(=O)OC1 [compound 89] here?
**A.** Its mortality at 125 ppm is 100%.

**Q.** And the mortality at 125 ppm [2, 4]?
**A.** The mortality at 125 ppm was 100%.

**Q.** For C=CCN(Cc1ccc(Cl)nc1)C1=CC(=O)OC1 [compound 91], which mortality at 125 ppm [1, 3] is on record?
**A.** The mortality at 125 ppm was 100%.

**Q.** And the mortality at 125 ppm [2, 4]?
**A.** Its mortality at 125 ppm is 100%.

**Q.** O=C1C=C(N(Cc2ccc(Cl)nc2)C(=O)C2CC2)CO1 [compound 96] was tested. Which mortality at 125 ppm [2, 4] did it give?
**A.** The mortality at 125 ppm was 100%.

**Q.** For CON(Cc1ccc(Cl)nc1)C1=CC(=O)OC1 [compound 98], which mortality at 125 ppm [1, 3] is on record?
**A.** The mortality at 125 ppm was 100%.

**Q.** And the mortality at 125 ppm [2, 4]?
**A.** The mortality at 125 ppm was 100%.

**Q.** O=C1OCC(NCc2ccc(Cl)nc2)=C1Br [compound 103] was tested. Which mortality at 125 ppm [1, 3] did it give?
**A.** Its mortality at 125 ppm is 100%.

**Q.** And the mortality at 125 ppm [2, 4]?
**A.** The mortality at 125 ppm was 100%.

**Q.** What does the source list for CN(Cc1ccc(Cl)nc1)C1=C(F)C(=O)OC1 [compound 104]?
**A.** mortality at 125 ppm [1, 3]: 100%; mortality at 125 ppm [2, 4]: 100%

**Q.** With O=C1OCC(N(Cc2ccc(Cl)nc2)C2CC2)=C1F [compound 105] as the compound, how does the mortality at 125 ppm [1, 3] read?
**A.** The mortality at 125 ppm was 100%.

**Q.** And the mortality at 125 ppm [2, 4]?
**A.** The mortality at 125 ppm was 100%.

**Q.** Which mortality at 125 ppm [1, 3] does the source give for O=C1C=C(NCc2ccc(Cl)nc2)CS1 [compound 111] here?
**A.** Its mortality at 125 ppm is 100%.

**Q.** And the mortality at 125 ppm [2, 4]?
**A.** Its mortality at 125 ppm is 100%.

**Q.** Which mortality at 125 ppm [1, 3] does the source give for CN(Cc1ccc(Cl)nc1)C1=CC(=O)SC1 [compound 112] here?
**A.** Its mortality at 125 ppm is 100%.

**Q.** What about the mortality at 125 ppm [2, 4] of the same compound?
**A.** The mortality at 125 ppm was 100%.

**Q.** What does the source list for CC1OC(=O)C=C1NCc1ccc(Cl)nc1 (stereo not shown) [compound 116]?
**A.** mortality at 125 ppm [1, 3]: 100%; mortality at 125 ppm [2, 4]: 100%

**Q.** With CC1OC(=O)C=C1N(C)Cc1ccc(Cl)nc1 (stereo not shown) [compound 117] as the compound, how does the mortality at 125 ppm [1, 3] read?
**A.** Its mortality at 125 ppm is 100%.

**Q.** What about the mortality at 125 ppm [2, 4] of the same compound?
**A.** The mortality at 125 ppm was 100%.

**Q.** Which mortality at 125 ppm [1, 3] does the source give for O=C1C=C(NCc2cnc(Cl)s2)CO1 [compound 143] here?
**A.** The mortality at 125 ppm was 100%.

**Q.** And the mortality at 125 ppm [2, 4]?
**A.** Its mortality at 125 ppm is 100%.

**Q.** How did the mortality at 125 ppm [1, 3] turn out when CN(Cc1cnc(Cl)s1)C1=CC(=O)OC1 [compound 144] was run?
**A.** Its mortality at 125 ppm is 100%.

**Q.** What about the mortality at 125 ppm [2, 4] of the same compound?
**A.** The mortality at 125 ppm was 100%.

**Q.** With CN1CC(NCc2ccc(Cl)nc2)=CC1=O [compound 161] as the compound, how does the mortality at 125 ppm [2, 4] read?
**A.** The mortality at 125 ppm was 100%.

**Q.** Which mortality at 125 ppm [1, 3] does the source give for CN(Cc1ccc(Cl)nc1)C1=CC(=O)CC1 [compound 175] here?
**A.** Its mortality at 125 ppm is 100%.

**Q.** And the mortality at 125 ppm [2, 4]?
**A.** The mortality at 125 ppm was 100%.

**Q.** CC1=C(N(C)Cc2ccc(Cl)nc2)CCC1=O [compound 187] was tested. Which mortality at 125 ppm [2, 4] did it give?
**A.** The mortality at 125 ppm was 100%.
